Measurements: patent publication US11419841B2, “Uses of lipophenolic compounds” (Universite De Montpellier, priority 2017, dated 2022)
“Also recorded” adds a separate entry of the source.

Key:
[1] = biological target: T1, MMP-9 (Homo sapiens, UniProt P14780); experiment: MMP-9 activity in TNF-alpha activated THP-1 cell line (gelatin zymography); type: cell-based; settings: for inhibition of MMP-9 activity: 30 μM, 24 h, THP-1 activated with 10 ng/mL TNF-α, zymogram (FIG. 3); for dose-response effect on the inhibitory activity of MMP9: zymogram and curve (FIG. 4)
T1 construct: endogenous in cells
Method: THP-1 cells (human monocytic THP-1 cell line) were cultured in 10% heated inactivated FBS RPMI 1640 medium supplemented with penicillin G 100 units/mL and streptomycin 100 μg/mL purchased from Fisher Scientific™ (Illkirch-Graffenstaden, France).
THP-1 cells were seeded (3×10^5 cell/well) in 24-well plate with 10 ng/mL TNF-α with or without 30 μM of resveratrol derivatives dissolved in DMSO. After 24 hours incubation at 37° C., supernatant was collected and tested on zymography.
Low-serum (1%) RPMI-1640 medium was used for the assessment of MMP-9 activity on TNF-alpha activated THP-1 cell line 3×10^6 cell/mL. Firstly, resveratrol and its derived lipophenolic compounds were dissolve in DMSO, and incubated at a final concentration of 30 μM with 10 ng/mL TNF-alpha treated THP-1 in CO2 incubator chamber for 24 hours at 37° C. After incubation, cell suspension was centrifuged at 1200 r.p.m for five minutes, supernatant was recovered and stored at −80° C. for zymogram analysis.
The anti MMP-9 activity was assessed using gelatin zymography. In brief, the collected supernatants were loaded on 10% SDS-polyacrylamide gel electrophoresis (PAGE) supplemented with 1% gelatin without reducing agents. After separation, gels were washed three times with 2.5% Triton X-100 and incubated with gelatinase buffer (NaCl 200 mM, Tris Base 50 mM, CaCl2) 5 mM and ZnCl2 0.25 mM; pH 7.5), for 24 hr at 37° C. on an orbital shaker at 100 r.p.m/min. Gels were further stained for one hour with Commassie Blue-staining solution (0.025% Commassie Blue, 40% methanol and 10% acetic acid) followed by destaining with 20% methanol and 10% glacial acetic acid solution until the clear bands appearance. Gels were photographed and analyzed by GelAnalyzer 2010a™ software.

[2] = test system: HUVEC monolayer; experiment: In vitro vascular permeability assay (FITC-dextran endothelial permeability assay); type: cell-based, human; settings: 10 μM, 100 ng/mL TNF-α, 24 h (FIG. 5)
Method: Human umbilical vascular endothelial cells (HUVECs) were cultured in low serum (1%) EndoGro™ medium kit purchased from Merck Millipore™ (Paris, France). TNF-α was purchased from PeproTech™ (Neuilly-Sur-Seine, France). The permeability of HUVEC monolayer seeded on collagen coated semi-permeable inserts was examined using in vitro vascular permeability assay kit, Millipore™ (Paris, France) according to the manufacturer protocol. Endothelial cells are seeded into the inserts and cultured until complete monolayer formation occurs. After forming confluent monolayer by seeding HUVECs (4×10^5 cells/insert) for 48 hours, medium was replaced with 100 ng/mL TNF-α in medium with and without MMP-9 inhibitors at 10 μM and incubated for 24 hours in CO2 chamber at 37° C. Lipophenolic derivatives of resveratrol were dissolved in DMSO, and SB-3CT (gelatinase inhibitor) was dissolved in DMSO. At the end of the permeability treatment, 150 μl FITC-dextran in media solution were incubated for 20 minutes at room temperature protected from light. FITC-dextran permeates the treated cell monolayer into the plate well. Permeation was stopped by removing the inserts and 100 μl were withdrawn from the receiving tray and added to 96-well opaque plate for fluorescence measurement. The resulting fluorescence in the plate well is measured and used as an indicator of the extent of monolayer permeability. […]

[3] = test system: HUVEC cells and THP-1 cell line; experiment: Cell viability assay (MTT assay); type: cell-based; settings: 10, 20, 40 μM, 72 h, MTT (FIG. 6)
Method: The MTT assay is a test used to evaluate the cytotoxicity of compounds.
The cytotoxicity assay was carried out as described by Mosmann (Mosmann 1983). HUVEC cells and THP-1 cell line (1×10^4 cell/well) were seeded in 96-well plate and incubated CO2 incubator chamber at 37° C. for 24 h. Cells were treated with serial dilutions of lipophenolic derivative of resveratrol at a final concentration of 10, 20, 40 and 80 μM, and plate was incubated for 72 hours. Supernatant was discarded and MTT-serum-free medium was added to each plate and incubated for three additional hours. The formed formazan blue crystals were further dissolved by addition of 100 μL of 10% SDS in 0.1 N HCl to each plate for 2 hours. The optical density was measured at 570 nm (reference filter 690 nm) using a TECAN™ plate reader. Lethal Concentration 50% (LC50) was calculated using GraphPad Prism v.5 software.

[4] = test system: TNF-α release by LPS-activated BV-2 microglia; experiment: TNF-α release by LPS-activated BV-2 microglia (AlphaLISA); type: cell-based, murine; settings: 30 μM, 24 h after LPS, BV2 cells, mean±SEM (FIG. 7)
Method: BV-2 cells that are derived from raf/myc-immortalised murine neonatal microglia are the most frequently used substitute for primary microglia (Blasi et al., 1990).
BV-2 cells were maintained in 75 cm2 culture flasks in Dulbecco's Modified Eagle's Medium (DMEM, Sigma) supplemented with 10% fetal bovine serum (FBS, Sigma) and 1% Penicillin-Streptomycin solution (Sigma), and cultured at 37° C. in a humidified atmosphere of 5% CO2.
BV-2 cells were plated on 24-well plates at a density of 10^5 cells per well. On the following day cells were subjected to different treatments. To study the effect of Resv-LA on TNF-alpha production by LPS activated BV-2 cells, the cells were incubated in medium containing 1 mg/ml LPS (Sigma-Aldrich) for 24 h, with or without Resv-LA (REV-LA) 30 μM.
Supernatants from untreated and treated cells were centrifuged at 5000 rpm for 5 minutes and assayed for their TNF-α contents using the TNF-α (mouse) AlphaLISA Detection Kit of Perkin-Elmer. TNF-α released was normalized by cell number and expressed as percentage of the maximal released obtained in the LPS-stimulated condition.
Data are expressed as mean±SEM. Statistical analysis of differences between groups was performed by using unpaired t-test/Mann-Whitney. […]

[5] = test system: MMP-9; settings: Cheng et al. 2009, Gao et al. 2014; cited from earlier work
[6] = in vivo; Walle 2011, Chang et al. 2016; cited from earlier work

T1 sequence (P14780 94-707): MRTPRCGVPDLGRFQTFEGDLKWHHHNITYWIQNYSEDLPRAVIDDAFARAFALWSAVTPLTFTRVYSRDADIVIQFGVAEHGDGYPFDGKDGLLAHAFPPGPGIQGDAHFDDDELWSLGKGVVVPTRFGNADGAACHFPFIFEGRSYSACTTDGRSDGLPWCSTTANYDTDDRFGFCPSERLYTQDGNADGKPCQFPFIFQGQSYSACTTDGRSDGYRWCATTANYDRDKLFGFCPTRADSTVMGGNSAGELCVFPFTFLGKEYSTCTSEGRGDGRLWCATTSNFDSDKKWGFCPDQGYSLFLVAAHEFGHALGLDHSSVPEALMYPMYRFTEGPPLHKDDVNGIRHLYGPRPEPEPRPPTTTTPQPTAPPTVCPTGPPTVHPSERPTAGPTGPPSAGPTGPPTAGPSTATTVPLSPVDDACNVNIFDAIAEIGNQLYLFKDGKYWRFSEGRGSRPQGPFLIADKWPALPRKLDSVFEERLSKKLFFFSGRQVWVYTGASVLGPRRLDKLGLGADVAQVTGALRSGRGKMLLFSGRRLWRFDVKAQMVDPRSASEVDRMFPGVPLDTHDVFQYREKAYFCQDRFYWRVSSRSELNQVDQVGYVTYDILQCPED

Row | SMILES | inhibition of MMP-9 activity [1] | dose-response effect on the inhibitory activity of MMP9 [1] | cytotoxic effect on viability [3] | other results
1 | CC/C=C\C/C=C\C/C=C\C/C=C\C/C=C\C/C=C\CCC(=O)Oc1ccc(/C=C/c2cc(O)cc(O)c2)cc1 [4′-Resv-DHA, (4,7,10,13,16,19 Z)-4-((E)-3,5-dihydroxyphenylstyryl)phenyl docosa-4,7,10,13,16,19-hexaenoate] | reduced MMP-9 activity |  |  | 
2 | CCCCC/C=C\C/C=C\CCCCCCCC(=O)Oc1ccc(/C=C/c2cc(O)cc(O)c2)cc1 [Resv-LA, (9,12Z)-4-((E)-3,5-dihydroxystyryl)phenyl octadeca-9,12-dienoate] | best activity; also recorded: demonstrated inhibition of MMP9-activity | dose-response effect | does not have cytotoxic effect | inhibition of TNF-alpha-enhanced permeability of the HUVEC monolayer [2]: demonstrated inhibition; TNF-α released, as percentage of the maximal released obtained in the LPS-stimulated condition [4]: 66.1±4.2 percentage
3 | Oc1ccc(C=Cc2cc(O)cc(O)c2)cc1 [Resveratrol] |  |  |  | inhibition of the activity of MMP-9 (reported) [5]: inhibit the activity of MMP-9; bioavailability [6]: poor bioavailability
4 | CCCCCCCCCCCCCCCCCCCCCC(=O)Oc1ccc(/C=C/c2cc(O)cc(O)c2)cc1 [Resv-C22, (E)-4-(3,5-dihydroxystyryl)phenyl docosanoate] | demonstrated inhibition of MMP9-activity | dose-response effect | does not have cytotoxic effect | 
5 | CC/C=C\C/C=C\C/C=C\C/C=C\C/C=C\C/C=C\CCC(=O)Oc1cc(O)cc(/C=C/c2ccc(O)cc2)c1 [Compound 3-Resv-DHA, (4,7,10,13,16,19Z)-3-hydroxy-5-((E)-4-hydroxystyryl)phenyl docosa-4,7,10,13,16,19-hexaenoate] | did not show any inhibitory activity; also recorded: not active |  |  | 
